# Measured values published in paper PMC8997399, “High-Throughput Screening to Identify Inhibitors of Plasmodium falciparum Importin α” (Cells, 2022).
# Where two headings read alike, the source gives them in different places.
# Columns and labels:
# MmIMPα/β heterodimer = target: T1, MmIMPα/β heterodimer (Mus musculus, UniProt P52293); assay: AlphaScreen binding assay, MmIMPα/β:T-ag-NLS-GFP interaction; details: for inhibition at 10 µM: read-out: % Inhibition of IMPα-NLS Interaction MmIMPα/β
# T1 construct: GST; made in house
# Procedure: (§1) PfIMPα, TgIMPα, Mus musculus IMPα (MmIMPα), ΔIBBMmIMPα, and β1 (MmIMPβ) GST fusion proteins were expressed and purified essentially as previously. His-tagged TGS1-NLS-GFP, PfIMPα and TgIMPα proteins were purified using Ni^2+-affinity chromatography as described. His-tagged SV40 T-ag-NLS-GFP was purified as previously. Biotinylation of GST-tagged proteins was carried out using the Sulfo-NHS-Biotin reagent (Pierce, Rockford, IL, USA) as described previously. AlphaScreen binding assay was performed as described previously.
# (§2) Plates were read for an Alphascreen signal on an Envision plate reader (PerkinElmer, Waltham, MA, USA), with signals from the negative control wells (no bait control) on each plate subtracted.
# MmΔIBBIMPα = target: T2, MmΔIBBIMPα (Mus musculus, UniProt P52293); assay: AlphaScreen binding assay, MmΔIBBIMPα:T-ag-NLS-GFP interaction; details: for inhibition at 10 µM: read-out: % Inhibition of IMPα-NLS Interaction MmΔIBBIMPα
# T2 construct: made in house
# Procedure: as §1, §2
# PfIMPα = PfIMPα (Plasmodium falciparum, UniProt Q8IAW0); assay: biochemical; type: binding; details: for inhibition at 10 µM: read-out: % Inhibition of IMPα-NLS Interaction PfIMPα
# Procedure: as §1
# Then, 10 nM biotinylated PfIMPα and 60 nM TGS1-NLS-GFP were used with library compounds, screened at 10 µM final concentration.
# Briefly, 5 μL of each compound in DMSO was added to quadruplicate wells of a 384-well plate along with appropriate controls including DMSO alone and ivermectin, as previously, using a JANUS Modular Dispense Technology (MDT) robotic system (PerkinElmer, Waltham, MA, USA). This was followed by successive 7 and 5 μL additions, respectively, of PfIMPα (10 nM) and TGS1-NLS-GFP (60 nM) or PBS (“no bait” control), respectively, and 30 min incubation at room temperature. […] Then, 4 µL of the AlphaScreen donor beads (1/40 dilution of GSH. acceptor beads in PBS) was finally added to each well using a Multidrop, followed by a further incubation of 2 h at room temperature in the dark.
# as §2
# TgIMPα = TgIMPα (Toxoplasma gondii, UniProt A0A125YID0); assay: biochemical; type: binding; details: for inhibition at 10 µM: read-out: % Inhibition of IMPα-NLS Interaction TgIMPα
# Procedure: as §1, §2
# T. gondii tachyzoites = details: cited from earlier work
# P. falciparum 3D7 strain = assay: P. falciparum growth inhibition assay (HRP2 sandwich ELISA); type: cell-based, Plasmodium falciparum; details: Plasmodium falciparum, 3D7, 72 h
# Procedure: Red blood cells (RBCs) were derived from blood from volunteers (approval from the Institute Ethics Committee, IIT Bombay, Mumbai, India) by density gradient centrifugation. Aliquots of cryopreserved P. falciparum 3D7 strain in human red blood cells (RBCs—3% hematocrit, <5% parasitemia) were thawed and cultured using RPMI (Roswell Park Memorial Institute) 1640 medium supplemented with 0.5% Albumax (Gibco^TM, Waltham, MA, USA), 50 mg/L hypoxanthine (Sigma-Aldrich, St Louis, MO, USA), 2 g/L D-glucose (Sigma-Aldrich, St Louis, MO, USA), 2 g/L sodium bicarbonate (Sigma-Aldrich, St Louis, MO, USA), and 56 mg/L of gentamicin (Abbott, Chicago, IL, USA) at 37 °C in 5% CO2 in a humidified incubator according to the standard procedures; suspension cultures were maintained at 3% hematocrit and <5% parasitemia, by adding a fresh medium daily and a regular addition of fresh human RBCs.
# Before growth inhibition assays, cultures were synchronized using 5% D-sorbitol (Sigma-Aldrich, St Louis, MO, USA) predominantly to obtain the ring stage of the P. falciparum life cycle.
# Growth assays in the absence and presence of inhibitors were performed using the Histidine–Rich Protein 2 (HRP2) sandwich horseradish peroxidase-linked immunosorbent assay to measure HRP2 protein levels as an indicator of growth. Briefly, 25 µL of compound was added to 96-well microculture plates (Eppendorf, Hamburg, Germany) of 0.25% (with fresh RBCs), and added at a hematocrit of 3%. The plates were then incubated for 72 h at 37 °C in a humidified incubator, sparged with 5% CO2. 72 h later, the plates were subjected to freeze–thaw to achieve hemolysis, and samples diluted 200-fold in H2O in transferring to another plate. A day prior to analysis, 96-well ELISA plates (Sigma-Aldrich, St Louis, MO, USA) were coated overnight at 4 °C with 100 µL of 1 μg/mL IgM capture antibody MPFM-55A (Immunology Consultants Laboratory, Portland, OR, USA) specific for P. falciparum HRP2. After blocking for 2 h at room temperature with 2% BSA in PBS, diluted samples were added to the wells, followed by incubation for 2 h, then the plates were washed three times with 0.05% Tween 20 in PBS. Next, 100 µL of the secondary antibody MPFG-55P (Immunology Consultants Laboratory, Portland, OR, USA) conjugated with horseradish peroxidase (0.25 μg/mL in PBS with 2% BSA) was then added to each well, and the plates incubated for 1 h at room temperature, prior to being washed three times, and 100 µL 3,3′, 5,5′ tetramethylbenzidine substrate (BD Biosciences, San Jose, CA, USA) being added. After 10 min incubation in the dark, 50 µL of 1 M H2SO4 was added and the absorbance was read at 450 nm on a Multiscan™ FC Microplate Spectrophotometer (Thermo Fisher Scientific, Waltham, MA, USA).
# [1] = MTT assay for host cell cytotoxicity; type: cell-based, human; details: human, HFF cells; MTT assay, 48 h; mean ± SD (n = 2)
# Procedure: The MTT assay was used to measure the cytotoxicity of the small molecules against the HFF cells as described. Briefly, freshly confluent HFF cells in a 96-well culture plate were treated with increasing concentrations of compounds for 48 h, prior to the MTT assay.
# [2] = test system: T. gondii RH strain expressing the luciferase reporter (RH-Fluc); assay: T. gondii tachyzoite growth inhibition assay (RH-Fluc luciferase); type: cell-based, Toxoplasma gondii; details: Toxoplasma gondii
# Text: T. gondii RH strain expressing the luciferase reporter (RH-Fluc) was derived to assess the effect of the inhibitors on growth. Briefly, plasmid pCTG-EGFP [42] was modified by replacing the coding sequence of EGFP with that of the firefly luciferase reporter, using restriction enzymes BglII and PstI (Thermo Fisher Scientific, Waltham, MA, USA). The resultant plasmid, pCTG-Fluc, expressing firefly luciferase constitutively under the control of the T. gondii TubulinA promoter, was electroporated into the T. gondii RH strain [43, 44] using a Bio-Rad GenePulser Xcell system (1500 V, 50 Ω and 25 µF) along with restriction enzyme NotI to initiate RE-Mediated Integration (REMI) of the linearized plasmid into the genome. The resultant stable T. gondii line expressing the luciferase reporter was selected for resistance to 20 µM chloramphenicol (encoded by the plasmid pCTG), and dilution cloning was performed to ultimately identify the clone (RH-Fluc) with the highest luciferase activity (c. 4 × 10^7 RLU from 10^7 parasites) used for growth assays. T. gondii tachyzoites were maintained and cultured at 37 °C in 5% CO2 in a humidified incubator in primary human foreskin fibroblasts (HFF, ATCC); HFF cells were maintained in Dulbecco’s modified Eagle medium (DMEM) (Gibco^TM, Waltham, MA, USA) supplemented with 3.7 g/L sodium bicarbonate and 2.38 g/L HEPES, 10% Cosmic Calf serum (Hyclone^TM, Logan, UT, USA) and 20 mg/L gentamicin [47, 48].
# Growth inhibition was assessed by luminescence measurements as described. Briefly, 100 μL of culture medium with or without inhibitors was added to confluent monolayers of HFF cells grown in 96-well treated culture plates (Eppendorf, Hamburg, Germany), followed by 100 µL of DMEM containing 5000 parasites. After 48 h, 150 µL of the culture media was discarded from each well without aspirating any parasites, and 10 µL lysis buffer was added to lyse the parasites, followed by 50 μL of 2× luciferase assay reagent (Promega, Madison, WI, USA). Luminescence was measured directly for 10 s using a Varioskan™ LUX multimode microplate reader (Thermo Fisher Scientific, Waltham, MA, USA).
# [3] = target: His-tagged SV40 T-ag-NLS-GFP (NLS of simian virus SV40 large tumor antigen fused to GFP) (Simian Virus 40); assay: AlphaScreen or HTRF
# [4] = target: His-tagged TGS1-NLS-GFP (NLS of P. falciparum trimethyl guanosine synthase 1 fused to GFP) (Plasmodium falciparum); assay: AlphaScreen or HTRF; Kd determination without inhibitors; His-tagged NLS-GFP (30 nM) and biotinylated-GST-IMPα (5 nM) as printed; pooled from three independent experiments
# [5] = compounds at 10 μM, PfIMPα (10 nM):TGS1-NLS-GFP (60 nM), relative to 1% DMSO control, quadruplicate
# [6] = compounds at 10 μM, MmIMPα/β (5 nM):T-ag-NLS-GFP (30 nM), relative to 1% DMSO control
# [7] = compounds at 10 μM, ΔIBBMmIMPα (5 nM):T-ag-NLS-GFP (30 nM), relative to 1% DMSO control
# [8] = compounds at 10 μM, TgIMPα (5 nM):T-ag-NLS-GFP (30 nM), relative to 1% DMSO control
compound,measurement,setting,value
CNC[C@H](O)c1ccc(O)c(O)c1.Cl (racemic) [(±)-Epinephrine HCl],% Inhibition of IMPα-NLS Interaction MmIMPα/β,MmIMPα/β heterodimer,95%
same,% Inhibition of IMPα-NLS Interaction MmIMPα/β,MmIMPα/β heterodimer; listed as (±)-epinephrine HCl,≥ 95%
same,% Inhibition of IMPα-NLS Interaction MmΔIBBIMPα,MmΔIBBIMPα,35%
same,% Inhibition of IMPα-NLS Interaction MmΔIBBIMPα,MmΔIBBIMPα; listed as (±)-epinephrine HCl,< 55%
Cl.NCC(O)c1cc(O)c(O)cc1F (stereo not drawn) [6-Fluoronorepinephrine HCl],% Inhibition of IMPα-NLS Interaction PfIMPα,PfIMPα; [5],77%
same,% Inhibition of IMPα-NLS Interaction MmIMPα/β,MmIMPα/β heterodimer; [6],51%
same,% Inhibition of IMPα-NLS Interaction MmΔIBBIMPα,MmΔIBBIMPα; [7],60%
same,% Inhibition of IMPα-NLS Interaction TgIMPα,TgIMPα; [8],67%
CNC[C@H](O)c1ccc(O)c(O)c1 [(−)-Epinephrine bitartrate],inhibition at 10 µM,PfIMPα,85%
same,inhibition at 10 µM,MmIMPα/β heterodimer; [6],94%
same,inhibition at 10 µM,MmΔIBBIMPα; [7],34%
same,inhibition at 10 µM,TgIMPα,23%
CC[n+]1c(/C=C/C=C2/N(C)c3ccccc3C2(C)C)sc2ccccc21.[I-] [AC-93253 iodide],% Inhibition of IMPα-NLS Interaction PfIMPα,PfIMPα; [5],82%
same,% Inhibition of IMPα-NLS Interaction MmIMPα/β,MmIMPα/β heterodimer; [6],62%
same,% Inhibition of IMPα-NLS Interaction MmΔIBBIMPα,MmΔIBBIMPα; [7],67%
same,% Inhibition of IMPα-NLS Interaction TgIMPα,TgIMPα; [8],72%
Cc1ccc(S(=O)(=O)/C=C/C#N)cc1 [Bay 11-7082],inhibition of growth of T. gondii tachyzoites,T. gondii tachyzoites,inhibit the growth
COc1ccc2c(c[n+](C)c3c4cc5c(cc4ccc23)OCO5)c1OC.[Cl-] [Chelerythrine Cl],% Inhibition of IMPα-NLS Interaction PfIMPα,PfIMPα; [5],81%
same,% Inhibition of IMPα-NLS Interaction MmIMPα/β,MmIMPα/β heterodimer; [6],94%
same,% Inhibition of IMPα-NLS Interaction MmΔIBBIMPα,MmΔIBBIMPα; [7],88%
same,% Inhibition of IMPα-NLS Interaction TgIMPα,TgIMPα; [8],67%
"C[C@H]1[C@@H](O)O[C@@H]2O[C@@]3(C)CC[C@H]4[C@H](C)CC[C@@H]1[C@@]24OO3 [DHA, dihydroartemisinin]",IC50,"P. falciparum 3D7 strain; parasites in culture, pooled, mean ± SD (n = 3)",1 nM
same,IC50,P. falciparum 3D7 strain; single typical experiment (Figure 6),0.7 nM
O=c1ccc2ccc(O)c(O)c2o1 [Daphnetin],inhibition at 10 µM,PfIMPα; [5],81%
same,inhibition at 10 µM,MmIMPα/β heterodimer; [6],83%
same,inhibition at 10 µM,MmΔIBBIMPα; [7],81%
same,inhibition at 10 µM,TgIMPα; [8],70%
O=C(Nc1ccc(N2CCNCC2)nc1)c1oc(-c2ccccc2)nc1C(F)(F)F [MMV024937],% Inhibition of IMPα-NLS Interaction PfIMPα,PfIMPα; [5],73%
same,% Inhibition of IMPα-NLS Interaction MmIMPα/β,MmIMPα/β heterodimer; [6],24%
same,% Inhibition of IMPα-NLS Interaction MmΔIBBIMPα,MmΔIBBIMPα; [7],70%
same,% Inhibition of IMPα-NLS Interaction TgIMPα,TgIMPα; [8],26%
CC(C)(CN)c1nc(-c2ccc(Cl)c(O)c2)c(-c2ccnc(N)n2)[nH]1 [MMV030734],% Inhibition of IMPα-NLS Interaction MmIMPα/β,MmIMPα/β heterodimer; [6],68%
same,% Inhibition of IMPα-NLS Interaction MmΔIBBIMPα,MmΔIBBIMPα; [7],43%
same,% Inhibition of IMPα-NLS Interaction TgIMPα,TgIMPα; [8],44%
O=C(Nc1nc(-c2ccccn2)cs1)c1cncn1-c1ccccc1 [MMV676512],% Inhibition of IMPα-NLS Interaction MmΔIBBIMPα,MmΔIBBIMPα; [7],54%
same,% Inhibition of IMPα-NLS Interaction TgIMPα,TgIMPα; [8],48%
CCc1nc(N)nc(N)c1-c1ccc(Cl)cc1 [pyrimethamine],CC50 at 48 h,[1],> 10000 nM
same,IC50,"[2]; Table S1, mean ± SEM (n = 3), read-out: IC50 T. gondii tachyzoites",500 ± 100 nM
same,IC50,"[2]; parasites in culture, 48 h, pooled, mean ± SD (n = 3) (Table 3), read-out: IC50 T. gondii",460 ± 140 nM
"Mus musculus importin α deleted for the autoinhibitory IBB domain (MmΔIBBIMPα), biotinylated GST fusion protein (domain or fragment)",Kd,[3],2.6 nM
"Plasmodium falciparum importin α (PfIMPα), biotinylated GST fusion protein (natural protein)",Kd,[4],6.5 nM
"Toxoplasma gondii importin α (TgIMPα), biotinylated GST fusion protein (natural protein)",Kd,[3],3.5 nM
